Assay results published in US9635855B2, “Polyelectrolyte complexes for biocide enhancement” (priority 2012, dated 2017).

System: Botrytis cinerea
Test: Botrytis cinerea fruit rot on wounded apple, post-harvest spray (Example 2)
Assay type: in vivo

SMILES: C[C@@H]1C/C=C/C=C/C=C/C=C/[C@H](O[C@@H]2O[C@H](C)[C@@H](O)[C@H](N)[C@@H]2O)C[C@@H]2O[C@](O)(C[C@@H](O)C[C@H]3O[C@@H]3/C=C/C(=O)O1)C[C@H](O)[C@H]2C(=O)O [natamycin]
- Rot on apples, comparison in words (five and six days after inoculation): clearly lower
- Botrytis fruit rot symptoms (in words) (two days after inoculation): did not show any symptoms
